# Data as given in US12403142B2, “Combination therapy with a phosphoinositide 3-kinase inhibitor with a zinc binding moiety” (Curis, Inc., priority 2018, dated 2025).
# Legend:
# [1] = test system: HDACs (HeLa cell nuclear extracts); experiment: HDAC activity assay, Biomol Color de Lys system; type: biochemical; settings: 25° C. for 1 hour
# Procedure: HDAC inhibitory activity was assessed using the Biomol Color de Lys system (AK-500, Biomol, Plymouth Meeting, PA). Briefly, HeLa cell nuclear extracts were used as a source of HDACs. Different concentrations of test compounds were serially diluted in dimethylsulfoxide (DMSO) and added to HeLa cell nuclear extracts in the presence of a colorimetric artificial substrate. Final assay condition contained 50 mM Tris/C1, pH 8.0, 137 mM NaCl, 2.7 mM KCl and 1 mM MgCl2. Reactions were carried in room temperature (25° C.) for 1 hour before addition of developer for termination. Relative enzyme activity was measured in the WALLAC Victor II 1420 microplate reader as fluorescence intensity (excitation: 350-380 nm; emission: 440-460 nm). Data were analyzed using GraphPad Prism (v4.0a) with a sigmoidal dose response curve fitting for IC50 calculation.
# [2] = test system: CT26.WT mouse colon carcinoma cells; experiment: Compound 1 and anti-PD-1 in the mouse CT26.WT xenograft model; type: in vivo
# Procedure: Animals: Female Balb/c Mice, 8 weeks old, fed a high fat diet
# CT26.WT cells were collected from flasks and washed once in RPMI 1640 with no additives. […] Mice were grouped once tumors were palpable on day 7 or day 8 and randomized by body weight. Treatment started with antibody and Compound 1 was begun immediately.
# Animals were monitored until the dosing commenced and then were measured twice a week during dosing until tumor volume reached protocol limit or ulceration was too severe. Tumor tissue and blood/plasma were collected at the end of the study.
# A20 syngeneic cells = experiment: Compound 1 and anti-PD-1 in the A20 mouse xenograft model; type: in vivo
# Text: Animals: Female Balb/c Mice, 4-5 weeks old, fed a regular diet
# A20 syngeneic cells were collected from flasks and washed once in RPMI 1640 with no additives. […] Animals were implanted with 2×10^5 cells in the right flank. Dosing commenced when tumors were greater than 100 mm^3 (around day 13) and dosing continued for 21 days or until the tumors reached the limit of 2000 mm^3.
# Animals started dosing around day 13 when tumors are fully palpable and measured. Dosing continued until tumors begin to show ulceration that requires sacrifice. Tumors were collected before extensive necrosis to run ELISA and Flow analysis.
# [3] = test system: a variety of cancer cell lines; experiment: Antiproliferative activity in vitro; type: cell-based
# [4] = Oral bioavailability in animal models; type: in vivo
# tumor tissue = experiment: Tumor uptake and pharmacodynamics in xenograft tumor bearing mice; type: in vivo, mouse; settings: oral or intravenous dosing
# [5] = test system: mouse xenograft tumor models; experiment: Antitumor activity in mouse xenograft tumor models; type: in vivo; settings: oral or intravenous administration
# [6] = Genotoxicity testing using the Ames test
smiles,measurement,setting,value
"COc1ccc(-c2nc(N3CCOCC3)c3sc(CN(C)c4ncc(C(=O)NO)cn4)cc3n2)cn1 [Compound 1, N-Hydroxy-2-(((2-(6-methoxypyridin-3-yl)-4-morpholinothieno[3,2-d]pyrimidin-6-yl)methyl)(methyl)amino)pyrimidine-5-carboxamide]",IC50,[1],< 100 nM
same,inhibition of tumor growth,"[2]; CT26.WT model, Compound 1 50 mg/kg, anti-PD-1 100 ug/mouse",only small inhibition of tumor growth
same,TGI %* (Day 15),"[2]; CT26.WT, female Balb/c mice, Day 15, relative to Vehicle (Cmp 1) group, Cpd 1 50 mg/kg PO 5+2−, mAb 100 μg IP BIW",3%
same,TGI %* (Day 13),"A20 syngeneic cells; A20, female Balb/c mice, Day 13, relative to Vehicle (Cmp 1) + isotype group, Cpd 1 100 mg/kg PO 5+2−, mAb 100 μg BIW",60%
same,tumor growth inhibition,"A20 syngeneic cells; A20 model, Compound 1 100 mg/kg, anti-PD-1 100 ug/mouse",significant tumor growth inhibition
same,antiproliferative activity,[3],potent antiproliferative activity
same,oral bioavailability,[4],significant oral bioavailability
same,pharmacodynamic activity in tumor tissue,tumor tissue,pharmacodynamic activity in tumor tissue
same,uptake by the tumor tissue,tumor tissue,significant uptake by the tumor tissue
same,antitumor activity,[5],substantial antitumor activity
same,"safety profile (genotoxicity, Ames test)",[6],favorable safety profile
